Test results as given in patent US6516214B1, “Detection of stroke events using diffuse optical tomography” (The General Hospital Corporation, priority 2000, dated 2003).

Test: Monitoring cerebral blood flow in an adult human by DOT after an indocyanine green bolus
Format: in vivo
From the text: A 100 mW, 808 nm laser diode coupled to a 1 mm diameter fused silica fiber was used to deliver light to an adult human head. Four diode detectors were coupled to the scalp via 3 mm diameter plastic fibers. The collecting fibers were positioned 1, 2, 3, and 4 cm from the emitting fiber. These four separations were chosen to discriminate between scalp signals and […]. Measurements made at 1 and 2 cm separations were sensitive to changes in the optical properties of only the skull and scalp. On the other hand, measurements made at 3 and 4 cm separations were sensitive to changes in the optical properties of the brain, skull, and scalp. The remitted intensity at the four positions was sampled at 4 Hz. Baseline data was collected for 10 seconds, followed by the bolus injection. The bolus consisted of a 2 ml saline solution of 40 mg of indocyanine green injected into a vein in the arm of the volunteer. This injection was immediately followed by a 10 ml saline flush.
The data is summarized in the graph of FIG. 15, showing the attenuation of the optical signal caused by passing of the bolus of indocyanine green through the brain of the adult human volunteer. […] The small increases in each signal at about 34 seconds resulted from the re-circulation of the indocyanine green bolus.

CC1(C)C(/C=C/C=C/C=C/C=C2\N(CCCCS(=O)(=O)O)c3ccc4ccccc4c3C2(C)C)=[N+](CCCCS(=O)(=O)[O-])c2ccc3ccccc3c21 [indocyanine green]
delay of the drop in the signals relative to 3 and 4 cm separations (1 and 2 cm optode separations (scalp and skull only)): about 2 seconds | time following injection of the dye bolus at which the signal dropped significantly (3 and 4 cm optode separations, 40 mg in 2 ml saline i.v. in the arm, 808 nm): 20 s | time of small signal increases from re-circulation of the bolus (each signal, all separations): about 34 seconds | concentration of second passage bolus, times smaller than the first passage bolus (re-circulation): about 10 times
